Reference: publication PMC9102502, “The Influence of Selected Antipsychotic Drugs on Biochemical Aspects of Alzheimer’s Disease” (International Journal of Molecular Sciences, 2022)
Like-named read-outs stand apart in the source and are kept apart here.

Assays:
AChE [1] = conditions: read-out: IC50 AChE, cited from earlier work
BuChE [2] = conditions: read-out: IC50 BuChE, cited from earlier work
BuChE [3] = target: T1, BuChE (Homo sapiens, UniProt P06276); assay: Kinetic parameters of enzymatic reaction (Hanes–Woolf), BuChE; assay type: biochemical; design: The solution of plasma 200-fold diluted with 0.9% NaCl; from tissue; host or cells: citrated plasma from blood of healthy human donors
Method: Kinetic parameters were obtained on the basis of three individual experiments carried out on different biological materials. For this purpose, various concentrations of substrates (ATC and BTC) were used in experiments. The type of inhibition and kinetic parameters of enzymatic reactions were obtained by linear regression using the Hanes–Woolf equations.
(§1) AChE SI (selectivity index) was calculated by using the following formula: SI = IC50 of BuChE/IC50 of AChE. However, BuChE SI was defined as IC50 of AChE/IC50 of BuChE. Maximal velocity (Vmax) and the Michaelis constant (Km) were calculated with the use of linear regression—according to the Hanes–Woolf plot.

[4] = target: T2, human plasma butyrylcholinesterase (Homo sapiens, UniProt P06276); assay: BuChE inhibition, modified Ellman's method; assay type: biochemical; conditions: 200 µg/L; control 0.349 ± 0.013 A/min
T2 construct: The solution of plasma 200-fold diluted with 0.9% NaCl; from tissue; host or cells: citrated plasma from blood of healthy human donors
Method: (§2) The activity of both cholinesterases (AChE and BuChE) were assessed spectrophotometrically according to the Ellman’s method with some modifications by Worek et al.. This test development included experimental determination of the optimal testing conditions. For all measurements, 37 °C was used as the best temperature for enzymatic determinations in material of human origin.
(§3) The solution of plasma 200-fold diluted with 0.9% NaCl and solution of hemolyzed erythrocytes diluted 400-fold with 0.9% were incubated (37 °C, 15 min) with 5 μL DTNB (0.01 mol/L) and 10 μL tested compound at a wider range of concentration than the therapeutic range in order to assess the overall effect of the compound on human esterases (AChE and BuChE). The controls without antipsychotics, containing only DTNB and diluted plasma or diluted solution of hemolyzed erythrocytes, were prepared. […] The final volume of a sample was 500 μL. […] The maximal velocity of the reaction was determined on the basis of changes in absorbance over time.
as §1

HUVEC cells = assay: WST-1 viability under AAPH-induced oxidative stress, HUVEC; assay type: cell-based, human; conditions: AAPH 17.5 mmol/L, relative to pure medium control
Method: (§4) WST-1 assay (Takara, Takara Bio Europe, Saint-Germain-en-Laye, France) was used to assess the effects of antipsychotics on the growth of HUVEC and astrocytes. The experiments were conducted as described previously. HUVEC were seeded at a density of 7500 cells, and astrocytes at 5000 cells per well on 96-well microplates and cultured for 24 h followed by treatment with compounds at ½ × TPCmax and TPCmax or pure medium as a control (v = 100 μL) for another 24 h (37 °C, 5% CO2). Subsequently, the cells were washed with culture medium (100 μL) and WST-1 reagent diluted in medium (10 μL of reagent + 90 μL of medium) was added. The plates were incubated at 37 °C in 5% CO2 for another 90 min for HUVEC and 60 min for astrocytes. The absorbance was read at 450 nm using a microplate reader (iMARK, Bio-Rad, Hercules, CA, USA). The cells viability was expressed as a percentage of the control samples which constituted 100% viability.
(§5) Moreover, the WST-1 assay was used to evaluate potential protective effects of antipsychotics on the growth of HUVEC and astrocytes under conditions of AAPH-induced oxidative stress. The experimental conditions were the same as in viability studies. AA at the final concentration of 10 μg/mL was used as an antioxidant control. After reaching the confluence, the antipsychotics were added at concentrations equaling ½ × TPCmax and TPCmax. After 1 h incubation under standard conditions, 50 μL AAPH was added to the wells containing tested compounds or AA. The AAPH concentration was chosen on the basis of preliminary experiments—17.5 mmol/L in HUVEC experiments, and 15.0 mmol/L in the case of astrocytes.

[5] = target: T3, recombinant human β-amyloid (1–42) (Homo sapiens, UniProt P05067); assay: Beta-amyloid aggregation, Thioflavin T fluorescence; assay type: biochemical
T3 construct: recombinant human β-amyloid (1–42; ultrapure); purchased Sigma-Aldrich (St. Louis, MO, USA)
Method: Aβ42 peptide was dissolved in DMSO and left to hydrate for a few minutes. The solution was centrifuged at 10,000 rpm for 5 min at 4 °C to separate any precipitated material. The solution at a concentration of 220 μmol/L was stored in small aliquots at a temperature of −30 °C and before each experiment it was restored at 37 °C for 15 min. Test samples containing Aβ42 solution at the final concentration of 20 μmol/L was incubated with antipsychotics at concentrations equaling their TPC and 1/2 × TPC (v = 10 µL). The final volume of the test samples was 100 μL. The positive control constituted a sample of Aβ42 peptide, whereas the negative control contained tannic acid at the final concentrations of 0.1 µmol/L and 10 µmol/L. The fibrillation reaction was set up by addition of thioflavin ThT dye at a concentration of 5 µmol/L. The fluorescence intensity was measured at room temperature with Ex/Em = 440 nm/484 nm (Synergy H1; BioTek, Winooski, VT, USA). The measurements of fluorescence intensity expressed as relative fluorescence units (RFU) were taken at 10, 30, 60 and 90 min and then after 24 and 48 h. The fluorescence intensity measured for control equaled 100% of Aβ aggregation and it was used to estimate the inhibitory properties of the tested antipsychotics.

astrocytes = assay: WST-1 viability under AAPH-induced oxidative stress, astrocytes; assay type: cell-based, human; conditions: ½ × TPC (benperidol 5 μg/L, bromperidol 12.5 μg/L); AAPH 15 mmol/L
Method: as §4, §5

AChE [6] = target: AChE (Homo sapiens, UniProt P22303); assay: Synergism of antipsychotics with donepezil/rivastigmine (binary mixtures), AChE; conditions: ComboSyn;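 note: antipsychotic concentration kept fixed across all measurements, selected from estimated therapeutic plasma levels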
[7] = target: T4, human erythrocyte acetylcholinesterase (Homo sapiens, UniProt P22303); assay: AChE inhibition, modified Ellman's method; assay type: biochemical; conditions: 200 µg/L; control 0.236 ± 0.032 A/min
T4 construct: solution of hemolyzed erythrocytes diluted 400-fold; from tissue; host or cells: hemolyzed erythrocytes from blood of healthy human donors
Method: as §2, §3, §1

BuChE [8] = target: T1, BuChE; assay: Synergism of antipsychotics with donepezil/rivastigmine (binary mixtures), BuChE; conditions: ComboSyn;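 note: combination index derived by median-effect analysis of combined drug effects on the cholinesterase, with values below 1 meaning synergism, exactly 1 additivity and above 1 antagonism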
[9] = reference values according to the literature ref 28
[10] = reference values according to the literature ref 31
[11] = reference values according to the literature ref 32
[12] = reference values according to the literature ref 33
[13] = rivastigmine 5 μmol/L + antipsychotic at TPCmax

Chain of AChE (P22303 32-617 isoform P22303-2 limits assumed): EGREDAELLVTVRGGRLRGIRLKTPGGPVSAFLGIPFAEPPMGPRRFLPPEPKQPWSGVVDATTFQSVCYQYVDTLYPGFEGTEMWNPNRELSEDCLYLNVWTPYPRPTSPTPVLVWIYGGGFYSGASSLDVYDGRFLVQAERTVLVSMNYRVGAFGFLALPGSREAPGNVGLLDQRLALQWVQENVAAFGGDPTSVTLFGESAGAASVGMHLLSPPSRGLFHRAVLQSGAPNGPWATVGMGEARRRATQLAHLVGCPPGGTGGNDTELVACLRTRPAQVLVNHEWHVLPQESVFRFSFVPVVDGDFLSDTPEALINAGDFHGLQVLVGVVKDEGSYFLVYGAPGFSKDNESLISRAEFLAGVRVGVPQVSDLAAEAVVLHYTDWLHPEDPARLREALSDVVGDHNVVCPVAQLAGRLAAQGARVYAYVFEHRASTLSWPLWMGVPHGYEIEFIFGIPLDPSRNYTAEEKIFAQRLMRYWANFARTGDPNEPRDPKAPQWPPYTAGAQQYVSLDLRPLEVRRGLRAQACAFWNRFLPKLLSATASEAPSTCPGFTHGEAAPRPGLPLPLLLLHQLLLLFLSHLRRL
T1 sequence (P06276 29-602): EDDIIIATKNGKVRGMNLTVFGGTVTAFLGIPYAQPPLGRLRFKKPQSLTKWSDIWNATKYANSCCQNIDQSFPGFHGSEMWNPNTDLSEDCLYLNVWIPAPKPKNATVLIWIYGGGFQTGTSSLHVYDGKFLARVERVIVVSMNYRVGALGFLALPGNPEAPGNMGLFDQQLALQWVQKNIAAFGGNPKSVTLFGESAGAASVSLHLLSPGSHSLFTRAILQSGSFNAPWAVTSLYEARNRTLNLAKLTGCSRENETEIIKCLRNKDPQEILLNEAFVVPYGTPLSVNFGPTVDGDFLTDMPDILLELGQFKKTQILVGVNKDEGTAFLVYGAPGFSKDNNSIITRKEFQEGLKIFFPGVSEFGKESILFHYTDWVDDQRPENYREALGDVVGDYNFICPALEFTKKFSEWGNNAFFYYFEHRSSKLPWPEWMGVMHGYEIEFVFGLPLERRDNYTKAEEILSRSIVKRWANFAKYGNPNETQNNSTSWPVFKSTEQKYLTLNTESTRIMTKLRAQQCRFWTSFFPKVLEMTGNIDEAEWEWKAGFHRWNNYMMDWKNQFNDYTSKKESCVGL
T3 sequence (P05067 672-713 limits assumed): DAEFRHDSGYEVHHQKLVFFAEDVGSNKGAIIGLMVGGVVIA
T4 sequence (P22303 32-617 isoform P22303-2 limits assumed): as the sequence (P22303 32-617 isoform P22303-2 limits assumed) above
T2 sequence (P06276 29-602): as the sequence (P06276 29-602) above

SMILES: CCN(C)C(=O)Oc1cccc([C@H](C)N(C)C)c1 [Rivastigmine, rivastigmine]
- Vmax(i) BuChE (BuChE [3]; compound at its IC50): 0.122 ± 0.003 A/min
- type of inhibition of BuChE (BuChE [3]; from Km(i), Vmax(i) vs Km, Vmax, mixed inhibition): noncompetitively

SMILES: O=C(CCCN1CCC(O)(c2ccc(Br)cc2)CC1)c1ccc(F)cc1 [Bromperidol, bromperidol]
- BuChE reaction velocity [4]: 0.230 ± 0.023 A/min
- viability of HUVEC under AAPH (HUVEC cells; TPC (bromperidol 25 μg/L, quetiapine 400 μg/L)): 82.5%
- viability of HUVEC under AAPH (HUVEC cells; ½ × TPC (bromperidol 12.5 μg/L, quetiapine 200 μg/L)): 66.8%
- percentage value of Aβ inhibition ([5]; 12.5 μg/L, 48 h, compared with the control (100% Aβ aggregation)): 51.2%
- effect on Aβ aggregation after a longer incubation time ([5]; 24 and 48 h, both tested concentrations): substantially inhibit
- astrocyte viability under AAPH (astrocytes): 68.9%
- CI (combination index), AChE (AChE [6]; donepezil 0.005 μmol/L + antipsychotic at TPCmax, CI < 1 synergism, > 1 antagonism): 0.07
- CI (combination index), AChE (AChE [6]; donepezil 0.01 μmol/L + antipsychotic at TPCmax): 0.78
- CI (combination index), AChE (AChE [6]; donepezil 0.02 μmol/L + antipsychotic at TPCmax): 0.81
- CI (combination index), AChE (AChE [6]; donepezil 0.05 μmol/L + antipsychotic at TPCmax): 0.81
- CI (combination index), AChE (AChE [6]; donepezil 0.1 μmol/L + antipsychotic at TPCmax): 0.80
- CI (combination index), AChE (AChE [6]; [13]): 0.32
- CI (combination index), AChE (AChE [6]; rivastigmine 10 μmol/L + antipsychotic at TPCmax): 0.38
- CI (combination index), AChE (AChE [6]; rivastigmine 15 μmol/L + antipsychotic at TPCmax): 0.46
- CI (combination index), AChE (AChE [6]; rivastigmine 25 μmol/L + antipsychotic at TPCmax): 0.50
- CI (combination index), AChE (AChE [6]; rivastigmine 40 μmol/L + antipsychotic at TPCmax): 0.53
- CI (combination index), AChE (AChE [6]; rivastigmine 50 μmol/L + antipsychotic at TPCmax): 0.49
- CI (combination index), AChE (AChE [6]; rivastigmine 75 μmol/L + antipsychotic at TPCmax): 0.55
- CI (combination index), AChE (AChE [6]; rivastigmine 100 μmol/L + antipsychotic at TPCmax): 0.60
- AChE reaction velocity [7]: 0.228 ± 0.029 A/min
- CI (combination index), BuChE (BuChE [8]; donepezil 2 μmol/L + antipsychotic at TPCmax): 0.43
- CI (combination index), BuChE (BuChE [8]; donepezil 5 μmol/L + antipsychotic at TPCmax): 0.52
- CI (combination index), BuChE (BuChE [8]; donepezil 10 μmol/L + antipsychotic at TPCmax): 0.57
- CI (combination index), BuChE (BuChE [8]; donepezil 20 μmol/L + antipsychotic at TPCmax): 0.70
- CI (combination index), BuChE (BuChE [8]; donepezil 100 μmol/L + antipsychotic at TPCmax): 0.89
- CI (combination index), BuChE (BuChE [8]; rivastigmine 0.05 μmol/L + antipsychotic at TPCmax): 0.18
- CI (combination index), BuChE (BuChE [8]; rivastigmine 0.1 μmol/L + antipsychotic at TPCmax): 0.30
- CI (combination index), BuChE (BuChE [8]; rivastigmine 0.25 μmol/L + antipsychotic at TPCmax): 0.57
- CI (combination index), BuChE (BuChE [8]; rivastigmine 0.5 μmol/L + antipsychotic at TPCmax): 0.74
- CI (combination index), BuChE (BuChE [8]; rivastigmine 0.75 μmol/L + antipsychotic at TPCmax): 0.86
- CI (combination index), BuChE (BuChE [8]; rivastigmine 1 μmol/L + antipsychotic at TPCmax): 0.92
- CI (combination index), BuChE (BuChE [8]; rivastigmine 2.5 μmol/L + antipsychotic at TPCmax): 0.96
- CI (combination index), BuChE (BuChE [8]; [13]): 0.96
